Laboratory results taken from patent publication US8609610B2, “Inhibitors of the trypsin-like site of the proteasome and methods of use thereof” (Trustees of Dartmouth College, priority 2011, dated 2013).
Counter-ions that a name gives are not always drawn.

Legend:
[1] = molecular target: T1, trypsin-like site of 26S proteasomes (Oryctolagus cuniculus, UniProt G1SWK8); test: Inhibition of purified 26S proteasomes, substrate Ac-RLR-amc; assay type: biochemical, rabbit; details: purified 26S proteasomes; >>30 no inhibition at 30 μM, >30 inhibition between 10 and 50% at 30 μM; read-out: IC50 for sites in 26S proteasomes: Tr-L
T1 construct: IC50 for sites in 26S proteasomes: Tr-L; other: purified 26S proteasomes; other: 26S proteasomes from rabbit muscles
T1 sequence (G1SWK8 1-271): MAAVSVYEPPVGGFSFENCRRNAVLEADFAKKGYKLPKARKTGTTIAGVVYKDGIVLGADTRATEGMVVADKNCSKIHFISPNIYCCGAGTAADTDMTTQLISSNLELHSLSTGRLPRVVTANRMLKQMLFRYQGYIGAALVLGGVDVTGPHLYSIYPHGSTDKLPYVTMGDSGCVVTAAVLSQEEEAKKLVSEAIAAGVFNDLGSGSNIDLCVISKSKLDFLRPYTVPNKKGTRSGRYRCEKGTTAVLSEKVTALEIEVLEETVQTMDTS

[2] = molecular target: caspase-like site of 26S proteasomes (Oryctolagus cuniculus, UniProt A0A5F9DQW2); test: Inhibition of purified 26S proteasomes, substrate Ac-nLPnLD-amc; assay type: biochemical, rabbit; details: >>30 no inhibition at 30 μM, >30 inhibition between 10 and 50% at 30 μM, read-out: IC50 for sites in 26S proteasomes: Casp-L
Description: (§1) 26S proteasomes were purified from rabbit muscle using known methods (Screen, et al. (2010) supra). […] NOVEX Bis-Tris gels (12%, Invitrogen) with MOPS running buffer were used for electrophoretic separation of catalytic subunits modified by active-site probes. Inhibition of active sites inside cells was assayed using luminescent PROTEASOMEGLO assay (Promega; Moravec, et al. (2009) Anal. Biochem. 387:294-302) according to known methods (Britton, et al. (2009) supra).

[3] = molecular target: T2, chymotrypsin-like site of 26S proteasomes (Oryctolagus cuniculus, UniProt G1T4Q9); test: Inhibition of purified 26S proteasomes, substrate Suc-LLVY-amc; assay type: biochemical, rabbit; details: >>30 no inhibition at 30 μM, >30 inhibition between 10 and 50% at 30 μM, read-out: IC50 for sites in 26S proteasomes: Chym-L
T2 sequence (G1T4Q9 1-263): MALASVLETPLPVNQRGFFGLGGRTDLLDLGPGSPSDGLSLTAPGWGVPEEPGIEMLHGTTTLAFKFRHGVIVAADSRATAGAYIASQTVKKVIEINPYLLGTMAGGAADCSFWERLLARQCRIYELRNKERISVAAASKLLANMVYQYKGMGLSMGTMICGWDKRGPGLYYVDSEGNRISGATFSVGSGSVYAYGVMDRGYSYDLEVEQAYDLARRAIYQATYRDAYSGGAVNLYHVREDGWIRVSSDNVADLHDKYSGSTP
Description: as §1

[4] = test system: trypsin-like site of 26S proteasomes; test: Inhibition of purified 26S proteasomes, substrate Ac-RLR-amc; assay type: biochemical, rabbit; details: for IC50 (Chym-L)/IC50 (Tr-L): rabbit 26S proteasomes
RPMI-8226 cells = test: ALAMAR BLUE cell viability assay; assay type: cell-based; details: E-64d 10 μM
Description: RPMI-8226 and NCI-H929 cells were cultured in RPMI-1640 supplemented with 10% fetal bovine serum, penicillin, streptomycin, and plasmocin in 5% CO2 humidified incubator. HEK-293T cells were cultured in DMEM containing 10% fetal calf serum, 10 units/mL penicillin, and 10 μg/mL streptomycin in a 7% CO2 humidified incubator. Viability of multiple myeloma cells was measured with ALAMAR BLUE mitochondrial dye conversion assay. Viability of peripheral blood mononuclear cells (PBMNCs) was measured using CELL TITER-GLO luminescent cell viability assay (Promega), which is based on quantification of ATP present in the cells. Caspase-3/7 activity was measured using APO-ONE 3/7 homogeneous assay (Promega).

Sequence of caspase-like site of 26S proteasomes (A0A5F9DQW2 1-212): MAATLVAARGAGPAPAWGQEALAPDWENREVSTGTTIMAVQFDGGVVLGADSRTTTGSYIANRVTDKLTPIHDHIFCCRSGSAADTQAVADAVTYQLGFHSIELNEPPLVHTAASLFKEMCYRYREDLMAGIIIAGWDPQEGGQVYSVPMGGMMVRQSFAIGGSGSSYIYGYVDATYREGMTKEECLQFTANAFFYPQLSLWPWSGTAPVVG

Molecule | IC50 [1] | IC50 [2] | IC50 [3] | IC50 (Chym-L)/IC50 (Tr-L) [4] | further results
CC(C)C[C@H](NC(=O)[C@H](Cc1ccccc1)N=[N+]=[N-])C(=O)N[C@@H](CC(C)C)C(=O)N[C@@H](Cc1ccc(CN)cc1)C(=O)[C@@]1(C)CO1 [Compound 4b, N3Phe-Leu-Leu-Phe(4-CH2NH2)EK] | 250 nM | 11000 nM | – | – | –
CC(C)C[C@H](NC(=O)[C@H](Cc1ccccc1)N=[N+]=[N-])C(=O)N[C@@H](CC(C)C)C(=O)N[C@H](/C=C/S(C)(=O)=O)Cc1ccncc1 [Compound 46, N3-Phe-Leu-Leu-Ala(4-pyridine)-VS] | – | > 30000 nM | < 100 nM | – | –
CC(C)C[C@H](NC(=O)[C@H](Cc1ccccc1)N=[N+]=[N-])C(=O)N[C@@H](CC(C)C)C(=O)N[C@H](/C=C/S(C)(=O)=O)CCCCN [Compound 47, N3-Phe-Leu-Leu-Lys-VS] | – | > 30000 nM | – | – | –
Cc1c(O)cccc1C(=O)N[C@H](C(=O)N[C@@H](CO)C(=O)N[C@H](/C=C/S(C)(=O)=O)Cc1ccc(N)cc1)C(C)C [Compound 49, HMB-Val-Ser-Phe(4-NH2)-VS] | 110 nM | 23000 nM | 40 nM | 0.36 | –
CC(C)C[C@H](NC(=O)[C@H](Cc1ccc(CN)cc1)NC(=O)[C@H](Cc1ccccc1)N=[N+]=[N-])C(=O)N[C@H](/C=C/S(C)(=O)=O)Cc1ccc(N)cc1 [Compound 53, N3-Phe-Phe (4-CH2NH2)-Leu-Phe (4-NH2)—VS] | – | > 30000 nM | – | 59 | –
CC(C)C[C@H](NC(=O)[C@H](Cc1ccc(CN)cc1)NC(=O)[C@H](Cc1ccccc1)N=[N+]=[N-])C(=O)N[C@H](/C=C/S(C)(=O)=O)Cc1ccncc1 [Compound 54, N3-Phe-Phe (4-CH2NH2)-Leu-Ala (4 pyridine)-VS] | – | > 30000 nM | – | 9.1 | –
CC(C)C[C@@H](/C=C/S(C)(=O)=O)NC(=O)[C@H](CC(C)C)NC(=O)[C@H](Cc1ccc(CN)cc1)NC(=O)[C@H](Cc1ccccc1)N=[N+]=[N-] [Compound 55, N3-Phe-Phe(4-CH2NH2.TFA)-Leu-Leu-VS] | – | – | 10 nM | 0.057 | –
CC(C)C[C@H](NC(=O)[C@H](Cc1ccccc1)NC(=O)[C@H](Cc1ccccc1)N=[N+]=[N-])C(=O)N[C@H](/C=C/S(C)(=O)=O)Cc1ccccc1 [Compound 58, N3-Phe-Phe-Leu-Phe-VS] | > 30000 nM | > 30000 nM | – | – | –
CCOC(=O)[C@H]1O[C@@H]1C(=O)N[C@@H](CC(C)C)C(=O)NCCC(C)C [Compound E-64d] | – | – | – | – | sensitization to carfilzomib (RPMI-8226 cells): did not sensitize cells to carfilzomib
BODIPY-triazole-Phe-Phe(4-CH2NH2.TFA)-Leu-Phe(4-CH2NH2.TFA)-VS [Compound 59] | – | – | – | – | specificity after attachment of BODIPY-FL dye [4]: reduced the specificity

Continued, in another order:

IC50 [1] | IC50 [2] | IC50 [3] | IC50 (Chym-L)/IC50 (Tr-L) [4] | Molecule | further results
110 nM | 23000 nM | 40 nM | – | CC(C)C[C@H](NC(=O)[C@H](Cc1ccccc1)N=[N+]=[N-])C(=O)N[C@@H](CC(C)C)C(=O)N[C@H](/C=C/S(C)(=O)=O)Cc1ccc(N)cc1 [Compound 45a, N3-Phe-Leu-Leu-Phe(4-NH2)-VS] | –
– | > 30000 nM | 10 nM | – | CC(C)C[C@H](NC(=O)[C@H](Cc1ccccc1)N=[N+]=[N-])C(=O)N[C@@H](CC(C)C)C(=O)N[C@@H](Cc1ccc(N)cc1)C(=O)[C@@]1(C)CO1 [Compound 45b, N3-Phe-Leu-Leu-Phe(4-NH2)-EK] | –
